{
  "source": "patent US20040194155A1",
  "about": "“HBV mutations associated with reduced susceptibility to adefovir” (priority 2002, published 2004)",
  "key": {"[1]": {"test_system": "wild-type HBV (patient-derived baseline clones)", "assay": "Whole HBV genome cell culture assay: patient-derived HBV clones transiently transfected into HepG2 cells, 7 days drug, Southern blot of intracellular replicating virus DNA", "assay_type": "cell-based, hepatitis B virus", "conditions": "adefovir, patient-derived HBV (0454-2506), reference"}, "[2]": {"test_system": "rtN236T mutant HBV (patient-derived clones)", "assay": "Whole HBV genome cell culture assay (HepG2 transient transfection), rtN236T clones", "assay_type": "cell-based, hepatitis B virus", "conditions": "for IC50 Fold Change (rtN236T/Wild-type): patient-derived HBV strain, rtN236T vs wild-type (Table 7); for susceptibility of rtN236T mutant (in words): in vitro"}, "[3]": {"test_system": "rtN236T + rtA181T double mutant HBV", "assay": "Whole HBV genome cell culture assay, rtA181T introduced by site-directed mutagenesis into rtN236T clones of patient 0454-2506", "assay_type": "cell-based, hepatitis B virus", "conditions": "adefovir, patient-derived HBV (0454-2506)", "from_the_text": "(§1) One patient (0454-2506) with the rtN236T mutation also developed a second conserved site mutation rtA181T at week 96. However, all week 96 isolates derived from the patient encoding both rtN236T and rtA181T were replication deficient in vitro; the reason for this is unclear. To assess the adefovir sensitivity of HBV containing both rtN236T and rtA181Tmutations, an artificial construct was obtained by modifying an existing patient-derived HBV clone. The rtA181T mutation was introduced by site-directed mutagenesis into replicating HBV clones from patient 0454-2506 that already encoded rtN236T. The resulting double mutants were replication competent and were used for adefovir susceptibility testing. […] The rtA181T mutation was also introduced into a standard HBV lab strain (genotyped, ayw) to assess the individual contribution of the rtA181T mutation."}, "[4]": {"test_system": "Lab HBV strain, rtA181T mutant", "assay": "In vitro adefovir susceptibility of HBV lab strain with introduced rtA181T", "assay_type": "cell-based, hepatitis B virus", "from_the_text": "as §1"}, "[5]": {"test_system": "HBV", "assay": "Phase 3 clinical study GS-98-438, HBeAg negative chronic hepatitis B patients", "assay_type": "in vivo, human", "procedure": "The median serum HBV DNA levels declined by 3.5 and 3.9 log10 copies/mL from baseline to week 48 in the ADV 10 mg dose groups in HBeAg positive (Study GS-98-437) and in HBeAg negative (Study GS-98-438) chronic hepatitis B patients, respectively.\nAdefovir resistance surveillance was performed in a blinded manner in HBeAg negative chronic hepatitis B patients treated for 96 weeks in a Phase 3 double-blind, randomized, placebo-controlled clinical study (GS-98-438) of adefovir dipivoxil 10 mg (ADV). The analysis included 79 patients who received ADV 10 mg daily for the first 48 weeks and were randomized to also receive ADV 10 mg during the second 48 weeks.\nThe reverse transcriptase (RT) domain of the HBV polymerase gene (rt1 to rt344) was sequenced for HBV DNA extracted from baseline and week 96 serum samples (or the last on-study sample) for the 79 patients treated continuously with ADV for 96 weeks if the samples had detectable serum HBV DNA (≧1000 copies/mL by Roche Amplicor™ PCR assay) at the time points tested.\nStudy GS-98-438 is a randomized, double-blind, placebo-controlled Phase 3 clinical study of the safety and efficacy of ADV for the treatment of patients with HBeAg negative/anti-HBe positive/HBV DNA positive chronic hepatitis B. A total of 184 patients received at least one dose of study medication during the first 48 weeks (n=61 and 123 for the placebo and ADV 10 mg groups, respectively). During the second 48 weeks, all placebo patients switched to ADV 10 mg daily while the ADV-treated patients were re-randomized to either continue ADV or receive placebo at a 2:1 ratio. Accordingly, all patients who received at least one dose of study drug during the second 48 weeks are classified into three groups: PLB-ADV (n=60), ADV-ADV (n=79), and ADV-PLB (n=40).\nA virology substudy of Study GS-98-438 included all patients in the ADV 10 mg-ADV 10 mg group (n=79). The RT domain of the HBV polymerase gene from banked serum samples from these patients was genotypically analyzed at baseline, and either at week 96, or upon early termination during the second 48 weeks.\nIf the week 96 serum HBV DNA value was not available for a patient, the closest serum HBV DNA value prior to week 96 was used. All week 96 and the last on-drug samples are referred to as week 96 samples hereafter. Note that Roche Molecular Systems raised the lower limit of quantification of the HBV DNA PCR assay from 400 copies/mL to 1,000 copies/mL after Gilead completed the week 48 analyses for study 438."}, "[6]": {"test_system": "rtK241E + rtK318Q mutant HBV (patient-derived clones)", "assay": "Whole HBV genome cell culture assay (HepG2 transient transfection), rtK241E + rtK318Q clones", "conditions": "in vitro, patient 0370-3503", "method": "All conserved site substitutions were evaluated for their effects on adefovir susceptibility using a novel approach to generate full-length patient-derived HBV clones. […] Full-length viral genomes were cloned into the lethal selection vector pCAP^s at a Mlu Nl site through blunt-end ligation (PCR Cloning Kit, Roche) and then subcloned into plasmid pHY106, a pBluescript KS (+)-derived plasmid containing a CMV promoter and the minimal 5′ and 3′ HBV sequence necessary (approximately 180 total bases) for viral replication after the insertion of a genome-length clinical HBV isolate. Drug susceptibility of patient-derived clones was analyzed by transient transfection into HepG2 cells.\nTo investigate if these conserved site mutations conferred resistance to adefovir, adefovir susceptibility of HBV isolates derived from the above five patients was evaluated using a whole HBV genome cell culture assay as described above."}},
  "note": "Entries after “also recorded” stand apart in the source; their conditions may differ.",
  "data": [
    {"smiles": "Nc1ncnc2c1ncn2CCOCP(=O)(O)O", "note": "[Adefovir, adefovir]", "values": [
      {"measurement": "IC50 Fold Change from Wild-Type", "setting": "[1]", "value": 1, "unit": "fold"},
      {"measurement": "IC50 Fold Change (rtN236T/Wild-type)", "setting": "[2]", "value": 9.6, "unit": "fold"},
      {"measurement": "IC50 Fold Change from Wild-Type", "setting": "[3]", "value": 2.5, "unit": "fold"},
      {"measurement": "resistance conferred by rtA181T mutation (in words)", "setting": "[4]", "value": "did not confer resistance; also recorded: does not confer resistance"},
      {"measurement": "reduction in serum HBV DNA", "setting": "[5]; patient 0370-3503 (rtK241E + rtK318Q), week 96", "value": "> 5", "unit": "log10"},
      {"measurement": "serum HBV DNA", "setting": "[5]; patient 0370-3503, week 96", "value": 3.1, "unit": "log10 copies/mL"},
      {"measurement": "serum HBV DNA", "setting": "[5]; patient 0370-3503, week 156 (February of 2003)", "value": 3.6, "unit": "log10 copies/mL"},
      {"measurement": "susceptibility of rtK241E + rtK318Q double mutant (in words)", "setting": "[6]", "value": "not associated with resistance; also recorded: remained fully susceptible"}
    ]},
    {"smiles": "Cc1cn([C@@H]2C[C@@H](O)[C@H](CO)O2)c(=O)[nH]c1=O", "note": "[L-dT]", "values": [
      {"measurement": "susceptibility of rtN236T mutant (in words)", "setting": "[2]", "value": "remained susceptible"},
      {"measurement": "IC50 Fold Change (rtN236T/Wild-type)", "setting": "[2]", "value": 2.4, "unit": "fold"}
    ]},
    {"smiles": "C=C1[C@H](CO)[C@@H](O)C[C@@H]1n1cnc2c(=O)[nH]c(N)nc21", "note": "[Entecavir, entecavir]", "values": [
      {"measurement": "susceptibility of rtN236T mutant (in words)", "setting": "[2]", "value": "remained susceptible"},
      {"measurement": "IC50 Fold Change (rtN236T/Wild-type)", "setting": "[2]", "value": 0.67, "unit": "fold"}
    ]},
    {"smiles": "CC(C)(C)C(=O)OCOP(=O)(COCCn1cnc2c(N)ncnc21)OCOC(=O)C(C)(C)C", "note": "[ADV, adefovir dipivoxil]", "values": [
      {"measurement": "number of patients with HBV DNA < 1000 copies/mL at week 96", "setting": "[5]; of 79 patients on ADV 10 mg for 96 weeks, Roche Amplicor PCR", "value": 58}
    ]},
    {"smiles": "C[C@H](Cn1cnc2c(N)ncnc21)OCP(=O)(O)O", "note": "[Tenofovir, tenofovir]", "values": [
      {"measurement": "IC50 Fold Change (rtN236T/Wild-type)", "setting": "[2]", "value": 4.2, "unit": "fold"}
    ]},
    {"smiles": "COc1ccc(Sc2nc(N)nc3c2ncn3CCOCP(=O)(OCC(F)(F)F)OCC(F)(F)F)cc1", "note": "[MCC-478]", "values": [
      {"measurement": "IC50 Fold Change (rtN236T/Wild-type)", "setting": "[2]", "value": 8.6, "unit": "fold"}
    ]}
  ]
}
